Test results from patent publication EP0908457B1, “3-(1,2-benzisothiazol- and isoxazol-5-Y1)-2,4(1H,3H)-pyrimidinedione or thione and 3-(1,2-benzisothiazol- and isoxazol-5-y1)-4(3H)-pyrimidinone or thione herbicidal agents” (BASF AKTIENGESELLSCHAFT, priority 1997, dated 1999).

Legend:
[1] = system: Cyperus serotinus, Rottb.; assay: Preemergence weed control under flooded paddy conditions, CYPSE (Flatsedge); type: in vivo; conditions: preemergence, rated three to four weeks after treatment
[2] = system: Oryza sativa, (L.) Tebonnet; assay: Rice tolerance to post-transplant applications under flooded paddy conditions (Example 187), ORYSAT (Rice, Tebonnet); conditions: rated three to four weeks after treatment
[3] = system: Sagittaria pygmaea, L.; assay: Preemergence weed control under flooded paddy conditions, SAGPY (Arrowhead (Pygmaea)); type: in vivo; conditions: preemergence, flooded paddy, rated three to four weeks after treatment
[4] = system: Monochoria vaginalis, Presl.; assay: Preemergence weed control under flooded paddy conditions, MOOVA (Monochoria); type: in vivo; conditions: preemergence, flooded paddy, rated three to four weeks after treatment
[5] = system: Echinochloa oryzoides (Ard.) Fritsch.; assay: Preemergence weed control under flooded paddy conditions, ECHORC (Watergrass (Calif.)); type: in vivo; conditions: preemergence, flooded paddy, rated three to four weeks after treatment
[6] = system: Cyperus iria; assay: Preemergence weed control under flooded paddy conditions, CYPIR (Rice Flatsedge); type: in vivo; conditions: preemergence, flooded paddy, rated three to four weeks after treatment

SMILES	CYPSE herbicidal effect rating ([1]; Rate 0.0320 kg/ha)	CYPSE herbicidal effect rating ([1]; Rate 0.0620 kg/ha)	CYPSE herbicidal effect rating ([1]; Rate 0.1250 kg/ha)	CYPSE herbicidal effect rating ([1]; Rate 0.2500 kg/ha)	ORYSAT herbicidal effect rating ([2]; Rate 0.0320 kg/ha)	ORYSAT herbicidal effect rating ([2]; Rate 0.0620 kg/ha)	ORYSAT herbicidal effect rating ([2]; Rate 0.1250 kg/ha)	ORYSAT herbicidal effect rating ([2]; Rate 0.2500 kg/ha)	SAGPY herbicidal effect rating ([3]; Rate 0.0320 kg/ha)	SAGPY herbicidal effect rating ([3]; Rate 0.0620 kg/ha)	SAGPY herbicidal effect rating ([3]; Rate 0.1250 kg/ha)	SAGPY herbicidal effect rating ([3]; Rate 0.2500 kg/ha)	MOOVA herbicidal effect rating ([4]; Rate 0.0320 kg/ha)	MOOVA herbicidal effect rating ([4]; Rate 0.0620 kg/ha)	MOOVA herbicidal effect rating ([4]; Rate 0.1250 kg/ha)	MOOVA herbicidal effect rating ([4]; Rate 0.2500 kg/ha)	ECHORC herbicidal effect rating ([5]; Rate 0.0320 kg/ha)	ECHORC herbicidal effect rating ([5]; Rate 0.0620 kg/ha)	ECHORC herbicidal effect rating ([5]; Rate 0.1250 kg/ha)	ECHORC herbicidal effect rating ([5]; Rate 0.2500 kg/ha)	further results
CC(C)OP(=O)(Cc1nsc2ccc(-n3c(=O)cc(C(F)(F)F)n(C)c3=O)cc12)OC(C)C [Example 263, 1,2-Benzisothiazole-3-methanephosphonic acid, 5-[3,6-dihydro-3-methyl-2,6-dioxo-4-(trifluoromethyl)-1(2H)-pyrimidinyl]-, diisopropyl ester]	9.0	9.0	9.0	9.0	0.0	0.0	0.0	4.0	0.0	0.0	0.0	0.0	0.0	0.0	6.0	9.0	0.0	0.0	0.0	2.0	CYPIR herbicidal effect rating ([6]; Rate 0.0320 kg/ha): 4.0; CYPIR herbicidal effect rating ([6]; Rate 0.0620 kg/ha): 7.0; CYPIR herbicidal effect rating ([6]; Rate 0.1250 kg/ha): 9.0; CYPIR herbicidal effect rating ([6]; Rate 0.2500 kg/ha): 9.0
Cn1c(C(F)(F)F)cc(=O)n(-c2ccc3snc(C(Br)C#N)c3c2)c1=O (stereo not drawn) [Example 264, 1,2-Benzisothiazole-3-acetonitrile, alpha-bromo-5-[3,6-dihydro-3-methyl-2,6-dioxo-4-(trifluoromethyl)-1(2H)-pyrimidinyl]-]	4.0	4.0	9.0	9.0	0.0	0.0	0.0	5.0	0.0	0.0	0.0	0.0	9.0	9.0	9.0	9.0	0.0	0.0	0.0	2.0	CYPIR herbicidal effect rating ([6]; Rate 0.0320 kg/ha): 5.0; CYPIR herbicidal effect rating ([6]; Rate 0.0620 kg/ha): 5.0; CYPIR herbicidal effect rating ([6]; Rate 0.1250 kg/ha): 5.0; CYPIR herbicidal effect rating ([6]; Rate 0.2500 kg/ha): 5.0
Cc1ccc(OCC(=O)OC(C)(C)C)c(-c2noc3ccc(-n4c(=O)cc(C(F)(F)F)n(C)c4=O)c(Cl)c23)c1 [Example 265, Acetic acid, {{2-{4-chloro-5-[3,6-dihydro-3-methyl-2,6-dioxo-4-(trifluoromethyl)-1(2H)-pyrimidinyl]-1,2-benzisoxazol-3-yl}-p-tolyl}oxy}-, tert-butyl ester]	0.0	0.0	0.0	0.0	0.0	0.0	0.0	0.0	0.0	0.0	0.0	0.0	9.0	9.0	9.0	9.0	0.0	0.0	0.0	0.0	CYPIR herbicidal effect rating ([6]; Rate 0.0320 kg/ha): 0.0; CYPIR herbicidal effect rating ([6]; Rate 0.0620 kg/ha): 0.0; CYPIR herbicidal effect rating ([6]; Rate 0.1250 kg/ha): 0.0; CYPIR herbicidal effect rating ([6]; Rate 0.2500 kg/ha): 3.0
